Activity calls are given as the source filed them. No rule for the calls is given here.
Test system: GENE-TOX genotoxicity assays, various organisms and cells
Assay: GENE-TOX mutagenicity studies
Conditions: for call: Assay Type: In vivo carcinogenicity studies
[1] = Species/Cell Type: Nonhuman, Assay Type: Sister-chromatid exchange (SCE) in vivo, Assay Code: SC3+, Evaluation Type: Evaluation B (Post-1980)
[2] = Species/Cell Type: Salmonella typhimurium (one or more of the five standard strains: TA98, TA100, TA1535, TA1537, and TA1538), Assay Type: Histidine reverse gene mutation, Ames assay, Assay Code: SAL+*, Activation: With metabolic activation, Evaluation Type: Evaluation A (Pre-1980)
[3] = Species/Cell Type: Nonhuman, Assay Code: CCGT, Evaluation Type: Evaluation A (Pre-1980)
[4] = Species/Cell Type: Human, Assay Type: Sister-chromatid exchange (SCE) in vitro, Assay Code: SC1+, Evaluation Type: Evaluation B (Post-1980)
[5] = Species/Cell Type: Salmonella typhimurium (one or more of the five standard strains: TA98, TA100, TA1535, TA1537, and TA1538), Assay Type: Histidine reverse gene mutation, Ames assay, Assay Code: SAL+, Evaluation Type: Evaluation A (Pre-1980)
[6] = Species/Cell Type: Drosophila melanogaster, Assay Type: Sex-linked recessive lethal gene mutation, Assay Code: SRLT, Evaluation Type: Evaluation A (Pre-1980)
[7] = Species/Cell Type: Saccharomyces cerevisiae, Assay Type: Mitotic recombination or gene conversion, Assay Code: YEC+, Evaluation Type: Evaluation A (Pre-1980)
[8] = Species/Cell Type: Nonhuman, Assay Type: Sister-chromatid exchange (SCE) in vitro, Assay Code: SC2T, Evaluation Type: Evaluation B (Post-1980)
[9] = Species/Cell Type: Chinese hamster ovary (CHO) cells, Assay Type: Forward gene mutation at the HPRT locus, Assay Code: CHO+, Evaluation Type: Evaluation B (Post-1980)

Cc1cc2c(c3ccc4ccccc4c13)CCC2=O
mutagenic call (Species/Cell Type: Human lymphocytes, Assay Type: Sister-chromatid exchange (SCE) in vitro, Assay Code: SCL+D*, Activation: With metabolic activation, Dose Response: With dose response, Evaluation Type: Evaluation B (Post-1980)): active; positive
mutagenic call (Species/Cell Type: Human, Assay Type: Sister-chromatid exchange (SCE) in vitro, Assay Code: SC1+D*, Activation: With metabolic activation, Dose Response: With dose response, Evaluation Type: Evaluation B (Post-1980)): active; positive
mutagenic call [1]: active; positive
mutagenic call [2]: active; positive

NC[C@H]1O[C@H](O[C@H]2[C@H](O)[C@@H](O[C@H]3O[C@H](CO)[C@@H](O)[C@H](N)[C@H]3O)[C@H](N)C[C@@H]2N)[C@H](N)[C@@H](O)[C@@H]1O
mutagenic call (Species/Cell Type: Saccharomyces cerevisiae, Assay Type: Mitotic recombination or gene conversion, Assay Code: YEH-, Evaluation Type: Evaluation A (Pre-1980)): inactive; negative

C/C=C/c1ccccc1
mutagenic call (Species/Cell Type: Human lymphocytes, Assay Type: Sister-chromatid exchange (SCE) in vitro, Assay Code: SCL+D, Dose Response: With dose response, Evaluation Type: Evaluation B (Post-1980)): active; positive
mutagenic call (Species/Cell Type: Human, Assay Type: Sister-chromatid exchange (SCE) in vitro, Assay Code: SC1+D, Dose Response: With dose response, Evaluation Type: Evaluation B (Post-1980)): active; positive

Cc1ccc2c(ccc3cc4ccccc4cc32)c1
mutagenic call (Species/Cell Type: Nonhuman, Assay Type: Sister-chromatid exchange (SCE) in vitro, Assay Code: SC2-, Evaluation Type: Evaluation B (Post-1980)): inactive; negative
mutagenic call [2]: active; positive

Cc1c2ccccc2c(C)c2c1ccc1c(O)cccc12
mutagenic call (Species/Cell Type: Chinese hamster lung (V79) cells, Assay Type: Forward gene mutation at the HPRT or ouabain locus, Assay Code: V79-*, Activation: With metabolic activation, Evaluation Type: Evaluation A (Pre-1980)): inactive; negative
call [3]: no conclusion

CC(C)CC=O
mutagenic call (Species/Cell Type: Human lymphocytes, Assay Type: Sister-chromatid exchange (SCE) in vitro, Assay Code: SCL+, Evaluation Type: Evaluation B (Post-1980)): active; positive
mutagenic call [4]: active; positive

C=CC1=C(C)/C(=C/c2[nH]c(Cc3[nH]c(/C=C4\NC(=O)C(C)=C4C=C)c(C)c3CCC(=O)O)c(CCC(=O)O)c2C)NC1=O
mutagenic call (Species/Cell Type: Human lymphocytes, Assay Type: Sister-chromatid exchange (SCE) in vitro, Assay Code: SCL-, Evaluation Type: Evaluation A (Pre-1980)): inactive; negative
mutagenic call (Species/Cell Type: Human, Assay Type: Sister-chromatid exchange (SCE) in vitro, Assay Code: SC1-, Evaluation Type: Evaluation A (Pre-1980)): inactive; negative

CCN(CC)CCn1c2ccc(CO)c3c2c([n+]1[O-])-c1ccc(Cl)cc1S3
mutagenic call [5]: active; positive
mutagenic call (Species/Cell Type: Salmonella typhimurium (one or more of the five standard strains: TA98, TA100, TA1535, TA1537, and TA1538), Assay Type: Histidine reverse gene mutation, Ames assay, Assay Code: SALT, Evaluation Type: Evaluation A (Pre-1980)): no conclusion
mutagenic call (Species/Cell Type: Salmonella typhimurium, Assay Type: Forward and reverse gene mutation, body fluid assay, Assay Code: BFU+, Evaluation Type: Evaluation A (Pre-1980)): active; positive
mutagenic call (Species/Cell Type: Salmonella typhimurium, Assay Type: Forward and reverse gene mutation, host-mediated assay, Assay Code: HMA+, Evaluation Type: Evaluation A (Pre-1980)): active; positive

OCCN1CCN(CCCN2c3ccccc3Sc3ccc(C(F)(F)F)cc32)CC1
mutagenic call (Species/Cell Type: Mammalian polychromatic erythrocytes, Assay Type: Micronucleus test, chromosome aberrations, Assay Code: MNT+, Evaluation Type: Evaluation B (Post-1980)): active; positive

c1cc[n+]2c(c1)-c1cccc[n+]1CC2
mutagenic call [6]: no conclusion
mutagenic call (Species/Cell Type: Rodents, Sex: Male, Assay Type: Dominant lethal test, Assay Code: DLT-, Evaluation Type: Evaluation A (Pre-1980)): inactive; negative
mutagenic call [7]: active; positive

O=NN1CCCC(Cl)C1 (centres undefined)
mutagenic call (Species/Cell Type: Drosophila melanogaster, Assay Type: Sex-linked recessive lethal gene mutation, Assay Code: SRL+, Evaluation Type: Evaluation A (Pre-1980)): active; positive
mutagenic call [2]: active; positive

CC1=C(/C=C/C(C)=C/C=C/C(C)=C/CO)C(C)(C)CCC1
mutagenic call (Species/Cell Type: Mouse, Sex: Male, Assay Type: Sperm morphology, Assay Code: SPI-, Evaluation Type: Evaluation A (Pre-1980)): inactive; negative
mutagenic call [8]: no conclusion

CCCCNC(=O)NS(=O)(=O)c1ccc(C)cc1
mutagenic call (Species/Cell Type: Mammalian polychromatic erythrocytes, Assay Type: Micronucleus test, chromosome aberrations, Assay Code: MNT+, Evaluation Type: Evaluation A (Pre-1980)): active; positive
mutagenic call (Species/Cell Type: Nonhuman, Assay Type: Sister-chromatid exchange (SCE) in vivo, Assay Code: SC3+D, Dose Response: With dose response, Evaluation Type: Evaluation B (Post-1980)): active; positive

O=Cc1ccc(C(=O)O)cc1
mutagenic call (Species/Cell Type: Syrian hamster embryo (SA7/SHE) cells, Assay Type: Cell transformation, viral enhanced, Assay Code: CT7+, Evaluation Type: Evaluation A (Pre-1980)): active; positive

C1=CC2OC2c2cc3ccc4ccccc4c3cc21 (centres undefined)
mutagenic call [6]: no conclusion
mutagenic call (Species/Cell Type: Mouse prostate cells, Assay Type: Cell transformation, Assay Code: CTM+, Evaluation Type: Evaluation A (Pre-1980)): active; positive

CN(N=O)C(=O)Nc1nc2ccccc2s1
mutagenic call (Species/Cell Type: Neurospora crassa, Assay Type: Forward gene mutation, Assay Code: NEF+, Evaluation Type: Evaluation A (Pre-1980)): active; positive
mutagenic call [7]: active; positive

NC(=O)N1c2ccccc2C=Cc2ccc(O)cc21
mutagenic call (Species/Cell Type: Human lymphocytes, Assay Type: Sister-chromatid exchange (SCE) in vitro, Assay Code: SCLT, Evaluation Type: Evaluation B (Post-1980)): no conclusion
mutagenic call (Species/Cell Type: Human, Assay Type: Sister-chromatid exchange (SCE) in vitro, Assay Code: SC1T, Evaluation Type: Evaluation B (Post-1980)): no conclusion

Oc1cccc(O)c1
mutagenic call (Species/Cell Type: Allium cepa, Assay Type: Chromosome aberrations, Assay Code: ALC+, Evaluation Type: Evaluation A (Pre-1980)): active; positive
mutagenic call (Species/Cell Type: Human lymphocytes, Assay Type: Sister-chromatid exchange (SCE) in vitro, Assay Code: SCL-, Evaluation Type: Evaluation B (Post-1980)): inactive; negative
mutagenic call (Species/Cell Type: Human, Assay Type: Sister-chromatid exchange (SCE) in vitro, Assay Code: SC1-, Evaluation Type: Evaluation B (Post-1980)): inactive; negative
mutagenic call (Species/Cell Type: Mammalian polychromatic erythrocytes, Assay Type: Micronucleus test, chromosome aberrations, Assay Code: MNTT, Evaluation Type: Evaluation A (Pre-1980)): no conclusion
mutagenic call (Species/Cell Type: Neurospora crassa, Assay Type: Aneuploidy, chromosome aberrations, Assay Code: NEN-, Evaluation Type: Evaluation A (Pre-1980)): inactive; negative
mutagenic call [8]: no conclusion
mutagenic call (Species/Cell Type: Nonhuman, Assay Type: Sister-chromatid exchange (SCE) in vivo, Assay Code: SC3-, Evaluation Type: Evaluation B (Post-1980)): inactive; negative
mutagenic call (Species/Cell Type: Salmonella typhimurium (one or more of the five standard strains: TA98, TA100, TA1535, TA1537, and TA1538), Assay Type: Histidine reverse gene mutation, Ames assay, Assay Code: SAL-, Evaluation Type: Evaluation A (Pre-1980)): inactive; negative

CC(C)N(C(=O)SCC(Cl)=C(Cl)Cl)C(C)C
mutagenic call [2]: active; positive

CCCOc1nc2c(c(=O)n(C)c(=O)n2C)n1C
mutagenic call (Species/Cell Type: Allium cepa, Assay Type: Chromosome aberrations, Assay Code: ALC+D, Dose Response: With dose response, Evaluation Type: Evaluation A (Pre-1980)): active; positive

O=C1c2ccccc2C(=O)N1CC1CO1 (centres undefined)
mutagenic call [9]: active; positive

NCCC[C@H](N)C(=O)O
mutagenic call (Species/Cell Type: Human, Sex: Male, Assay Type: Sperm morphology, Assay Code: SPH-, Evaluation Type: Evaluation A (Pre-1980)): inactive; negative

Nc1ccc2ccc3cccc4ccc1c2c34
mutagenic call [2]: active; positive

NC(=O)c1cccnc1
mutagenic call [4]: active; positive
mutagenic call (Species/Cell Type: Nonhuman, Assay Type: Sister-chromatid exchange (SCE) in vitro, Assay Code: SC2+, Evaluation Type: Evaluation B (Post-1980)): active; positive

CC(C)NNC(=O)c1ccncc1
mutagenic call [1]: active; positive

O[C@@H]1[C@@H](O)c2c(cc3ccc4cccc5ccc2c3c45)C2O[C@@H]21 (some centres undefined)
mutagenic call [5]: active; positive

N#[N+]c1nc[nH]c1C(N)=O
mutagenic call [5]: active; positive

C1CCNCC1
mutagenic call (Species/Cell Type: Salmonella typhimurium, Assay Type: Forward and reverse gene mutation, host-mediated assay, Assay Code: HMA-, Evaluation Type: Evaluation A (Pre-1980)): inactive; negative

c1ccc2c3c4c(ccc5cccc(c54)[C@H]4O[C@@H]34)cc2c1
mutagenic call (Species/Cell Type: Chinese hamster lung (V79) cells, Assay Type: Forward gene mutation at the HPRT or ouabain locus, Assay Code: V79+, Evaluation Type: Evaluation A (Pre-1980)): active; positive
call [3]: no conclusion
mutagenic call [5]: active; positive

COc1ccc2nc3cc(Cl)ccc3c(NCCNCCCl)c2c1
mutagenic call [9]: active; positive

Nc1cc(S(=O)(=O)O)cc2c1C(=O)/C(=N/Nc1ccc(-c3ccc(N/N=C4/C(=O)c5c(N)cc(S(=O)(=O)O)cc5C=C4S(=O)(=O)O)cc3)cc1)C(S(=O)(=O)O)=C2
call (Species/Cell Type: Nonhuman, Assay Code: CCG+, Evaluation Type: Evaluation A (Pre-1980)): active; positive

C=CN(CC)N=O
mutagenic call (Species/Cell Type: Arabidopsis species, Assay Type: Gene mutation, Assay Code: ARM+D, Dose Response: With dose response, Evaluation Type: Evaluation A (Pre-1980)): active; positive

CCN(CCCl)CCCNc1c2ccccc2nc2ccccc12
mutagenic call [9]: active; positive

C#CC(C)N(C(=O)CCl)c1ccccc1 (centres undefined)
mutagenic call (Species/Cell Type: Saccharomyces cerevisiae, Assay Type: Mitotic recombination or gene conversion, Assay Code: YEC-, Evaluation Type: Evaluation A (Pre-1980)): inactive; negative

CCc1cc2c(c3ccc4ccccc4c13)CCC2=O
mutagenic call [2]: active; positive

Source: PubChem BioAssay AID1259408 (Genetic Toxicology Data Bank (GENE-TOX), 2018)
